Consider one molecule from patent US11273124B2, “Antifungal nanoparticles for targeted treatment of fungal infections” (priority 2019, dated 2022).

Values after ≈ are worked out from the molar mass of the structure shown. “Also recorded” adds a separate entry of the source. Numbered stars: 1 amine (or outer) side, 2 acyl side, 3 side chain; on linkers, the order of the positions; unused ones are H or OH. Bridge positions count the residues as written; N and C are the ends. Square brackets hold non-standard residues; d marks the D form. Peptide text beside a SMILES is read from it. * marks the point of attachment. pTerphenylCO(4''-OnC5H11) = CCCCCOc1ccc(-c2ccc(-c3ccc(C(=O)*)cc3)cc2)cc1; Orn(4R-OH,5R-OH) = O=C([C@H](C[C@@H](O)[C@@H](O)N[*:3])N[*:1])[*:2]; hTyr(3S-OH,4S-OH) = N[C@H](C(=O)O)[C@H](O)[C@@H](O)c1ccc(O)cc1; Pro(3S-OH,4S-Me) = C[C@H]1CN[C@H](C(=O)O)[C@H]1O; Hyp = O=C(O)[C@@H]1C[C@@H](O)CN1

One data set concerns Candida albicans. As to conditions: cited from earlier work.
Data set [1] relates to Candida albicans 10231 biofilms. Put plainly: Pre-formed biofilm treatment assay (microscopy, CFU, metabolic activity). In kind it is cell-based. The note with it: liposomes at 1.25 mg/mL or equivalent free drug; twenty-four hours. From the text: (a) A set of representative differential interference contrast microscopy images of Candida albicans 10231 biofilms after twenty-four hours of treatment with 1×, 5×, and 10× anidulafungin loaded liposomes or equivalent free drug. (b) A bar graph showing Candida albicans 10231 biofilm colony-forming units (CFU) twenty-four hours after treatment with 1×, 5×, and 10× anidulafungin loaded liposomes or equivalent free drug (**p<0.01, unpaired two-tailed t-test, n=4). (c) A bar graph showing relative metabolic activity of Candida albicans 10231 biofilm cells twenty-four hours after treatment with 1×, 5×, and 10× anidulafungin loaded liposomes or equivalent free drug (*p<0.05, **p<0.01, ***p<0.001, ****p<0.0001, one-way ANOVA with Tukey's post hoc analysis, n=4). […] of untreated cells are shown. Negative controls lacking fungi were included in each study.
The inventors compared anidulafungin-loaded liposomes with AmBisome®, a commercially-available liposomal amphotericin B, for activity against Candida albicans 10231 biofilms. AmBisome® localizes to the fungal cell wall. See, Adler-Moore & Proffitt, Journal of Antimicrobial Chemotherapy, 49(1), 21-30 (2002) and Walker et al., mBio, 9(1), e02383-17 (2018). The anidulafungin-loaded liposomes performed as AmBisome®, reducing fungal burden by five-fold after only twenty-four hours. See, FIG. 4. […]

For data set [2] the following is noted: cited from earlier work.
For another data set, the system named is Candida parapsilosis. As to conditions: cited from earlier work.
The subject of another data set is human cells. As to conditions: compared to many other antifungals; cited from earlier work.

Consider `CCCCCOc1ccc(-c2ccc(-c3ccc(C(=O)N[C@H]4C[C@@H](O)[C@@H](O)NC(=O)[C@@H]5[C@@H](O)[C@@H](C)CN5C(=O)[C@H]([C@@H](C)O)NC(=O)[C@H]([C@H](O)[C@@H](O)c5ccc(O)cc5)NC(=O)[C@@H]5C[C@@H](O)CN5C(=O)[C@H]([C@@H](C)O)NC4=O)cc3)cc2)cc1` [Anidulafungin, 1-[(4R,5R) 4,5-dihydroxy-N2-[[4″-(pentyloxy)[1,1′:4′,1″-terphenyl]-4-yl]carbonyl]-L-ornithine] echinocandin B] ({pTerphenylCO(4''-OnC5H11)}-[Orn(4R-OH,5R-OH)]T[Hyp][hTyr(3S-OH,4S-OH)]T[Pro(3S-OH,4S-Me)]; lactam 1-C), for which the “minimum inhibitory concentration (MIC)” value in the data set with Candida albicans was 0.25 µg/mL (≈ 0.219 µM); in the data set with Candida parapsilosis, 4 µg/mL (≈ 3.51 µM). Further, in data set [1], the “metabolic activity compared to untreated controls” value is given as “did not reduce metabolic activity”. Further, in data set [2] (ethanol), the solubility in ethanol result is listed as “slightly soluble”. In data set [2] (water), the solubility in water entry is listed as “practically insoluble; also recorded: not freely soluble”. Further, the “toxicity to human cells” value in the data set with human cells was “reduced toxicity to human cells”.
